Drawing on US10947252B2, “Inhibitors of KEAP1-Nrf2 protein-protein interaction” (Janssen Pharmaceutica NV, priority 2018, dated 2021), this text covers Kd and EC50 for 7 molecules.

Test [1] has as its target Kelch domain of human KEAP1 (321-624 aa) (Homo sapiens (Human), UniProt Q14145). The experiment in a line: KEAP1 KELCH ThermoFluor binding assay.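 Further: Ligand-induced melting temperature shift of E. coli-expressed KEAP1 Kelch protein, Kd estimated from concentration-response curves of ΔTm.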 The following applies: KEAP Kelch […], 1,8-ANS, pH 7.0, average of results obtained, read-out: Tf Kd. For orientation: DSF heats the sample and reads unfolding from a dye or from intrinsic fluorescence.
Test [2] relates to Glo-Response ARE-luc2P HEK293 cell line. In words: ARE luciferase reporter cell-based assay.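 Further: luciferase signal tracks Nrf2 activation of the ARE once compounds disrupt KEAP1-Nrf2 binding, read with One-Glo reagent, DMSO serving as low control.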 The following applies: average of results obtained. For orientation: Reporter assays use an easily measured gene product as a stand-in for the process of interest.

pEC50, pKd: −log10 of the molar value.

Chain of Kelch domain of human KEAP1 (321-624 aa) (Q14145 321-624): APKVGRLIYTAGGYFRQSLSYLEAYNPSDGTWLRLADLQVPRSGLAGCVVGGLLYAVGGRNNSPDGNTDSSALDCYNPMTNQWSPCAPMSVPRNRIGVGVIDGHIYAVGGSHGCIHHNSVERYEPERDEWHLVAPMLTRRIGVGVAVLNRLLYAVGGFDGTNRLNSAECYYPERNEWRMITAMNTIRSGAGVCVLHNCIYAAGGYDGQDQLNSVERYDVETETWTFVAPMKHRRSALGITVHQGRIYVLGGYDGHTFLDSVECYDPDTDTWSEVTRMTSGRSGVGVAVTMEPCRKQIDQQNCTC

Regarding `Cc1ccc(C(CC(=O)O)c2ccn3c(C(F)F)nnc3c2C)cc1CN1CC2(CCOCC2)Oc2ccc(F)cc2S1(=O)=O` (centres unmarked) [Example 523, 3-(3-(Difluoromethyl)-8-methyl-[1,2,4]triazolo[4,3-a]pyridin-7-yl)-3-(3-((8-fluoro-1,1-dioxido-2′,3′,5′,6′-tetrahydrospiro[benzo[b][1,4,5]oxathiazepine-4,4′-pyran]-2(3H)-yl)methyl)-4-methylphenyl)propanoic Acid], in test [1], the pKd was greater than 9.00. This molecule gave a pEC50 in test [2] (Homo sapiens, HEK293, 24 h) of 7.62.

Regarding `Cc1ccc(C(CC(=O)O)c2ccn3c(C(F)F)nnc3c2C)cc1CN1CC2(CC2)Oc2ncc(F)cc2S1(=O)=O` (centres unmarked) [Example 526, 3-(3-(Difluoromethyl)-8-methyl-[1,2,4]triazolo[4,3-a]pyridin-7-yl)-3-(3-((8′-fluoro-1′,1′-dioxidospiro[cyclopropane-1,4′-pyrido[2,3-b][1,4,5]oxathiazepin]-2′(3′H)-yl)methyl)-4-methylphenyl)propanoic Acid], in test [1], the pKd is greater than 9.00. Besides, the pEC50 in test [2] (Homo sapiens, HEK293, 24 h) was 7.22.

Turning to `Cc1ccc(C(CC(=O)O)c2ccn3c(C(F)F)nnc3c2C)cc1CN1CC2(CC2)Oc2ncc(Cl)cc2S1(=O)=O` (centres unmarked) [Example 529, 3-(3-((8′-Chloro-1′,1′-dioxidospiro[cyclopropane-1,4′-pyrido[2,3-b][1,4,5]oxathiazepin]-2′(3′H)-yl)methyl)-4-methylphenyl)-3-(3-(difluoromethyl)-8-methyl-[1,2,4]triazolo[4,3-a]pyridin-7-yl)propanoic Acid], in test [1], the pKd was greater than 9.00. The pEC50 in test [2] (Homo sapiens, HEK293, 24 h) was 7.54.

`Cc1ccc(C(CC(=O)O)c2ccn3c(C(F)F)nnc3c2C)cc1CN1CC2(CCOCC2)Oc2ncc(F)cc2S1(=O)=O` (centres unmarked) [Example 532, 3-(3-(Difluoromethyl)-8-methyl-[1,2,4]triazolo[4,3-a]pyridin-7-yl)-3-(3-((8′-fluoro-1′,1′-dioxido-2,3,5,6-tetrahydrospiro[pyran-4,4′-pyrido[2,3-b][1,4,5]oxathiazepin]-2′(3′H)-yl)methyl)-4-methylphenyl)propanoic Acid]: the negative logarithm of the Kd (pKd) in test [1] is greater than 9.00. This molecule also had a pEC50 in test [2] (Homo sapiens, HEK293, 24 h) of 7.38.

As for `Cc1cnc2c(c1)S(=O)(=O)N(Cc1cc(C(CC(=O)O)c3ccn4c(C(F)F)nnc4c3C)ccc1C)CC1(CC1)O2` (centres unmarked) [Example 535, 3-(3-(Difluoromethyl)-8-methyl-[1,2,4]triazolo[4,3-a]pyridin-7-yl)-3-(4-methyl-3-((8′-methyl-1′,1′-dioxidospiro[cyclopropane-1,4′-pyrido[2,3-b][1,4,5]oxathiazepin]-2′(3′H)-yl)methyl)phenyl)propanoic Acid], the pKd in test [1] is greater than 9.00. Also, the pEC50 in test [2] (Homo sapiens, HEK293, 24 h) was 6.83.

Take `Cc1ccc(C(CC(=O)O)c2ccn3c(C(F)F)nnc3c2C)cc1CN1CC2(CC2)Oc2ncc(C(N)=O)cc2S1(=O)=O` (centres unmarked) [Example 551, 3-(3-((8′-Carbamoyl-1′,1′-dioxidospiro[cyclopropane-1,4′-pyrido[2,3-b][1,4,5]oxathiazepin]-2′(3′H)-yl)methyl)-4-methylphenyl)-3-(3-(difluoromethyl)-8-methyl-[1,2,4]triazolo[4,3-a]pyridin-7-yl)propanoic Acid]: the pKd in test [1] was 6.34. This molecule gave a pEC50 in test [2] (Homo sapiens, HEK293, 24 h) of less than 4.70.

Take “(*S)-3-(3-((7′-(3-((2-(2-aminoethoxy)ethyl)amino)-3-oxopropyl)-1′,1′-dioxido-2,3,5,6-tetrahydrospiro[pyran-4,4′-pyrido[2,3-b][1,4,5]oxathiazepin]-2′(3′H)-yl)methyl)-4-methylphenyl)-2,2-dimethyl-3-(8-methyl-3-(trifluoromethyl)-[1,2,4]triazolo[4,3-a]pyridin-7-yl)propanoic Acid [Example 345]”: the pKd in test [1] was less than 5.00. The pEC50 in test [2] (24 hours) was less than 7.70.

One may read the pKd as the Kd on a negative log10 scale, so that one unit is a factor of ten. The term pEC50 denotes −log10 of the EC50, conventionally taken in molar units. Low values mean a high EC50, high ones a low EC50.
